# Like-named read-outs stand apart in the source and are kept apart here.
# Target: NR1/NR2A (Homo sapiens (Human), UniProt Q05586+Q12879)
# Test: FDSS Ca2+ influx inhibition assay in HEK293 cells expressing NR1/NR2A
# Assay type: cell-based
# Conditions: 3 μM glutamate, 3 μM glycine, 1 mM Ca2+
# Protocol: Cell Culture and plating: HEK293 cells expressing NR1/NR2A (Chantest, Cleveland, Ohio) were grown to 70-80% confluency as an adherent monolayer in standard tissue culture flasks at 37° C., 5% CO2 per supplier's instructions.
# After induction, cell culture medium was removed and cells were rinsed once with Ca^2+ and Mg^2+-free Dulbecco's phosphate buffered saline. Cells were then removed from the flask using TrypLE™ Express (Life Technologies) according to the manufacturer's instructions and collected to 50 ml centrifuge tubes. Following two washes in Ca^2+/Mg^2+-free HBSS with 20 mM HEPES (HHnoCa), cells were counted and viability assessed using trypan blue. To load cells with Ca^2+-sensitive dye, they were resuspended in fluo-8 plus Component B (AAT Bioquest Products) diluted in HHnoCa and incubated 15 minutes at 37° C., followed by 30 minutes at room temp (in dark). Cells were then washed and resuspended in HHnoCa to remove extracellular dye and plated in 384-well plates (Falcon, uncoated) at 20,000-30,000 cells/well in a final volume of 25 μL/well.
# FDSS Assay: To each well of the plate, 10 μL test compound, control (MK801) or HHnoCa buffer was added to a final concentration of 10 μM with a final concentration of DMSO of 0.1%. Following 10 minutes pre-incubation in the dark, plates are loaded onto the Hamamatsu FDSS 6000. After collecting baseline fluorescence images, 3 μM glutamate, 3 μM glycine, and 1 mM Ca^2+ in HHnoCa buffer is added to each well, and Ca^2+ is recorded for 3 minutes. Data were processed by computing ratio of fluorescence at the end of data collection to baseline fluorescence to assess degree of Ca^2+ influx inhibition relative to that observed in MK801.
# [1] = inhibition relative to MK801, read-out: NR2A IC50
# NR1/NR2A, sequence (Q12879 23-1464, other chains not shown): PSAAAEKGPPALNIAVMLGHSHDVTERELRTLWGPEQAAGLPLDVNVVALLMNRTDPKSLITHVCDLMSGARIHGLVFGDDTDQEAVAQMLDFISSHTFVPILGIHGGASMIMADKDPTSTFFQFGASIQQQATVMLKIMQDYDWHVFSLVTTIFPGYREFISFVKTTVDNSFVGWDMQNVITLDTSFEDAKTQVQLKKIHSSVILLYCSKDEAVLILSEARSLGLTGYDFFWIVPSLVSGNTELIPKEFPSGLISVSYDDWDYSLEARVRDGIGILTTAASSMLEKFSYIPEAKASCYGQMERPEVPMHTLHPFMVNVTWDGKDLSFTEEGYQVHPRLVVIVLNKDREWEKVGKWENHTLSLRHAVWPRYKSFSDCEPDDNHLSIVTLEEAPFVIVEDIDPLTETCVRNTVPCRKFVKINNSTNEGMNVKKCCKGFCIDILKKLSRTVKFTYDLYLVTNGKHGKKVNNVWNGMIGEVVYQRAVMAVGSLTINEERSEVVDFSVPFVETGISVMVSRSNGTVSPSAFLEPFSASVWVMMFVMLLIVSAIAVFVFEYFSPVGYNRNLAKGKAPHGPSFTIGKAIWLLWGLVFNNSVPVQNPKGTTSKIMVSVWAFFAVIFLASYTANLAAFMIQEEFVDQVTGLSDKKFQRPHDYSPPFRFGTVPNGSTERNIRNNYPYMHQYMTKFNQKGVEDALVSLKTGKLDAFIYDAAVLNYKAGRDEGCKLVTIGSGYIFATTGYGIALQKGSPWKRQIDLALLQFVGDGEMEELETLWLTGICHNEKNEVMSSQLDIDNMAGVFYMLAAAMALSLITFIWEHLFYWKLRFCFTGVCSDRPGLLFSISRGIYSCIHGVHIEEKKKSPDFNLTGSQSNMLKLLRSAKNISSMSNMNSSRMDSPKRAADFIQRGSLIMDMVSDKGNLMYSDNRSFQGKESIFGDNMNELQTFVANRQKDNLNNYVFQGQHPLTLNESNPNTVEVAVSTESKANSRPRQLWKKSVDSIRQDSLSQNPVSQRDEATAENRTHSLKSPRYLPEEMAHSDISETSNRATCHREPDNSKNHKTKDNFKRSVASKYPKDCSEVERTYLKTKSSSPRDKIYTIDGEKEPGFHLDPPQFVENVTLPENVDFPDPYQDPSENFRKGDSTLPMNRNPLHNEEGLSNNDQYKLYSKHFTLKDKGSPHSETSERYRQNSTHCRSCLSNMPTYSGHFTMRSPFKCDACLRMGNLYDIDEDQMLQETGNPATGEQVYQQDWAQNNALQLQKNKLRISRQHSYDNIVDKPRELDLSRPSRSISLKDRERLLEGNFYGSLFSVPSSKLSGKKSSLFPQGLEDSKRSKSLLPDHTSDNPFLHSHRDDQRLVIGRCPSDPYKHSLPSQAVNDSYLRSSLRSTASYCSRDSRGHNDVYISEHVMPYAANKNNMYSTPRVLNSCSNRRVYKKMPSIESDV
SMILES,IC50 [1] [µM],IC50 (read-out: Binned Activity) [µM]
"CC(=O)N1CCc2cc(S(=O)(=O)NCc3cnc(C(=O)NCc4cnc(C)s4)cn3)ccc21 [5-(1-acetyl-2,3-dihydro-1H-indole-5-sulfonamidomethyl)-N-[(2-methyl-1,3-thiazol-5-yl)methyl]pyrazine-2-carboxamide]",10,> 10
"CC(=O)N1CCc2cc(S(=O)(=O)NCc3ccc(C(=O)NCc4cnc(C)s4)nc3)ccc21 [5-(1-acetyl-2,3-dihydro-1H-indole-5-sulfonamidomethyl)-N-[(2-methyl-1,3-thiazol-5-yl)methyl]pyridine-2-carboxamide]",10,> 10
"Cc1ncc(CNC(=O)c2cnc(CNS(=O)(=O)c3cc4ccccc4s3)cn2)s1 [5-(1-benzothiophene-2-sulfonamidomethyl)-N-[(2-methyl-1,3-thiazol-5-yl)methyl]pyrazine-2-carboxamide]",10,> 10
"Cc1ncc(CNC(=O)c2ccc(CNS(=O)(=O)c3cc4ccccc4s3)cn2)s1 [5-(1-benzothiophene-2-sulfonamidomethyl)-N-[(2-methyl-1,3-thiazol-5-yl)methyl]pyridine-2-carboxamide]",10,> 10
"Cc1ncc(CNC(=O)c2ccc(CNS(=O)(=O)c3csc4ccccc34)cn2)s1 [5-(1-benzothiophene-3-sulfonamidomethyl)-N-[(2-methyl-1,3-thiazol-5-yl)methyl]pyridine-2-carboxamide]",10,> 10
"Cc1ncc(CNC(=O)c2ccc(CNS(=O)(=O)c3cccc4nsnc34)cn2)s1 [5-(2,1,3-benzothiadiazole-4-sulfonamidomethyl)-N-[(2-methyl-1,3-thiazol-5-yl)methyl]pyridine-2-carboxamide]",10,> 10
"Cc1ncc(CNC(=O)c2cnc(CNS(=O)(=O)c3ccc(Cl)nc3Cl)cn2)s1 [5-(2,6-dichloropyridine-3-sulfonamidomethyl)-N-[(2-methyl-1,3-thiazol-5-yl)methyl]pyrazine-2-carboxamide]",10,> 10

# Results, then the compound that gave them:
IC50 [1] [µM],IC50 (read-out: Binned Activity) [µM],SMILES
10,> 10,"Cc1ncc(CNC(=O)c2ccc(CNS(=O)(=O)c3ccc(Cl)nc3Cl)cn2)s1 [5-(2,6-dichloropyridine-3-sulfonamidomethyl)-N-[(2-methyl-1,3-thiazol-5-yl)methyl]pyridine-2-carboxamide]"
10,> 10,"Cc1ncc(CNC(=O)c2cnc(CNS(=O)(=O)c3ccccc3F)c(C)n2)s1 [5-(2-fluorobenzenesulfon-amidomethyl)-6-methyl-N-[(2-methyl-1,3-thiazol-5-yl)methyl]pyrazine-2-carboxamide]"
10,> 10,"Cc1ncc(CNC(=O)c2cnc(CNS(=O)(=O)c3ccccc3F)cn2)s1 [5-(2-fluorobenzenesulfon-amidomethyl)-N-[(2-methyl-1,3-thiazol-5-yl)methyl]pyrazine-2-carboxamide]"
10,> 10,"Cc1ncc(CNC(=O)c2ccc(CNS(=O)(=O)c3ccccc3F)cn2)s1 [5-(2-fluorobenzenesulfon-amidomethyl)-N-[(2-methyl-1,3-thiazol-5-yl)methyl]pyridine-2-carboxamide]"
–,0.1 to 1,"Cc1ncc(CNC(=O)c2cnc(CNS(=O)(=O)c3ccc(Cl)c(Cl)c3)c(C)n2)s1 [5-(3,4-dichlorobenzenesulfon-amidomethyl)-6-methyl-N-[(2-methyl-1,3-thiazol-5-yl)methyl]pyrazine-2-carboxamide]"
10,> 10,"Cc1ncc(CNC(=O)c2cnc(CNS(=O)(=O)c3ccc(Cl)c(Cl)c3)cn2)s1 [5-(3,4-dichlorobenzenesulfon-amidomethyl)-N-[(2-methyl-1,3-thiazol-5-yl)methyl]pyrazine-2-carboxamide]"
–,1 to 10,"Cc1ncc(CNC(=O)c2ccc(CNS(=O)(=O)c3ccc(Cl)c(Cl)c3)cn2)s1 [5-(3,4-dichlorobenzenesulfon-amidomethyl)-N-[(2-methyl-1,3-thiazol-5-yl)methyl]pyridine-2-carboxamide]"

# Source: patent US9963434B2, “N-arylmethyl sulfonamide negative modulators of NR2A” (LUC THERAPEUTICS, priority 2013, dated 2018)
